Values of other authors in patent publication US9045248B2 (priority 2007, dated 2015).

Biological target: influenza virus RNP (Influenza A virus, UniProt P03428)
Conditions: cited from earlier work

influenza virus RNP, sequence (P03428 whole entry, looked up): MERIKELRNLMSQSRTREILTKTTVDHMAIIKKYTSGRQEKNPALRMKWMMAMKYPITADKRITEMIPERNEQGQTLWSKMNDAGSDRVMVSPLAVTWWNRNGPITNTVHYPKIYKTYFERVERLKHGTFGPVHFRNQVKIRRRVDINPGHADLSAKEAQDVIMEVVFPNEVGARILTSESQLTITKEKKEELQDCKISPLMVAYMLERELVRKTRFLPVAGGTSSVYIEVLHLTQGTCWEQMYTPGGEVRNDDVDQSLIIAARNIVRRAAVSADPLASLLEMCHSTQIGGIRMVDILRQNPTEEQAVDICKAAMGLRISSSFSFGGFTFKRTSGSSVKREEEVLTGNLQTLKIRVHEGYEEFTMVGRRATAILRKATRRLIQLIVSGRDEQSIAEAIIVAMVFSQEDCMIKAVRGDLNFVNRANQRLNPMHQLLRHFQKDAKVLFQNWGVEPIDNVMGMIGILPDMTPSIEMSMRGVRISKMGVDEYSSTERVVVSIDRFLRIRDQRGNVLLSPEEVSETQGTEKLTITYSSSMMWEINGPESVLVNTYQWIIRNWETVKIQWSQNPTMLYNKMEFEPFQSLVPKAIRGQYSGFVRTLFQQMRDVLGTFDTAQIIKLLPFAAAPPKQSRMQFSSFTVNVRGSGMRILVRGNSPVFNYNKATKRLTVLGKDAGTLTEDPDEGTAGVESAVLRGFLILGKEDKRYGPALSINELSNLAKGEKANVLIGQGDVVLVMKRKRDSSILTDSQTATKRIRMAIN

| SMILES | IC50 [µM] |
| --- | --- |
| Nc1nc2c(ncn2[C@@H]2O[C@H](COP(=O)(O)OP(=O)(O)OP(=O)(O)O)[C@@H](O)[C@H]2O)c(=O)[nH]1 [GTP] | 550 |
| C[n+]1cn([C@@H]2O[C@H](COP(=O)(O)OP(=O)(O)OP(=O)(O)O)[C@@H](O)[C@H]2O)c2nc(N)[nH]c(=O)c21 [m^7GTP, 7-methyl-guanosine triphosphate] | 113 |
